{"source": "patent US20200236933A1", "about": "“USE OF A NON-IONIC SURFACTANT WHICH IS A POLYOL DERIVATIVE AS A PLANT GROWTH STIMULATING AGENT OR AS AN ADJUVANT” (priority 2017, published 2020)", "key": {"[1]": {"test_system": "maize seeds", "assay": "Germination of maize seeds, comparison of surfactants (Examples 13-19)", "format": "in vivo", "settings": "maize seeds immersed 1 h in 0.75% solution", "method": "The treatment of the maize seeds consists of immersing them 1 h in a solution comprising water alone (control batch) or in a solution composed of 98.25% water and 0.75% of a polyol derivative non-ionic surfactant (treated batch, Sub4). The seeds are next dried in a heating tunnel at 45° C. for one hour. Two batch repetitions of 16 seeds are deposited on Petri dishes containing a medium composed of 2% Agar Agar and 98% water. The Petri dishes are kept at ambient temperature and in darkness. Each day the number of seeds that have germinated (having a radicle) is counted. The treatment of the maize seeds consists of immersing them 1 h in a solution comprising water alone (control batch) or in a solution composed of 98.25% water and 0.75% of a polyol derivative non-ionic surfactant (treated batch, Sub1). The seeds are next dried in a heating tunnel at 45° C. for one hour. Two batch repetitions of 16 seeds are deposited on Petri dishes containing a medium composed of 2% Agar Agar and 98% water. The Petri dishes are kept at ambient temperature and in darkness. Each day the number of seeds that have germinated (having a radicle) is counted. The treatment of the maize seeds consists of immersing them 1 h in a solution comprising water alone (control batch) or in a solution composed of 98.25% water and 0.75% of a polyol derivative non-ionic surfactant (treated batch, Sub7). The seeds are next dried in a heating tunnel at 45° C. for one hour. Two batch repetitions of 16 seeds are deposited on Petri dishes containing a medium composed of 2% Agar Agar and 98% water. The Petri dishes are kept at ambient temperature and in darkness. Each day the number of seeds that have germinated (having a radicle) is counted. The treatment of the maize seeds consists of immersing them 1 h in a solution comprising water alone (control batch) or in a solution composed of 98.25% water and 0.75% of a polyol derivative non-ionic surfactant (treated batch, Sub2). The seeds are next dried in a heating tunnel at 45° C. for one hour. Two batch repetitions of 16 seeds are deposited on Petri dishes containing a medium composed of 2% Agar Agar and 98% water. The Petri dishes are kept at ambient temperature and in darkness. Each day the number of seeds that have germinated (having a radicle) is counted. The treatment of the maize seeds consists of immersing them 1 h in a solution comprising water alone (control batch) or in a solution composed of 98.25% water and 0.75% of a polyol derivative non-ionic surfactant (treated batch, Sub3). The seeds are next dried in a heating tunnel at 45° C. for one hour. Two batch repetitions of 16 seeds are deposited on Petri dishes containing a medium composed of 2% Agar Agar and 98% water. The treatment of the maize seeds consists of immersing them 1 h in a solution comprising water alone (control batch) or in a solution composed of 98.25% water and 0.75% of a polyol derivative non-ionic surfactant (treated batch, Sub6). The seeds are next dried in a heating tunnel at 45° C. for one hour. Two batch repetitions of 16 seeds are deposited on Petri dishes containing a medium composed of 2% Agar Agar and 98% water. The treatment of the maize seeds consists of immersing them 1 h in a solution comprising water alone (control batch) or in a solution composed of 98.25% water and 0.75% of a polyol derivative non-ionic surfactant (treated batch, Sub5). The seeds are next dried in a heating tunnel at 45° C. for one hour. Two batch repetitions of 16 seeds are deposited on Petri dishes containing a medium composed of 2% Agar Agar and 98% water. The Petri dishes are kept at ambient temperature and in darkness. Each day the number of seeds that have germinated (having a radicle) is counted."}, "[2]": {"test_system": "Aspergillus niger", "assay": "Fungicide effect by antibiogram type method", "format": "cell-based", "settings": "positive control", "excerpt": "In order to evaluate any impact of the sugar esters used according to the invention on microorganisms, the fungicide effect was searched for by an antibiogram type method. The method consists of: • spreading a solution contaminated with the mold Aspergillus niger on the surface of a Petri dish containing glucose gel growth medium with chloramphenicol. • arrange 4 sterile antibiogram disks of 6 mm diameter per Petri dish. • inoculate with 3 drops (0.071 g) of solution to test or control solution per disk. The dishes are next placed in the incubator at 25° C. for 5 days. Measurement of the inhibitory diameter is carried out every day."}}, "data": [{"compound": "CCCCCCCCCCO[C@@H]1O[C@H](CO)[C@@H](O)[C@H](O)[C@H]1O", "note": "[decyl glucoside, Decyl glucoside]", "values": [{"measurement": "germination rate", "setting": "[1]; D1", "value": 19, "unit": "%"}, {"measurement": "germination rate", "setting": "[1]; D2", "value": 84, "unit": "%"}]}, {"compound": "Polyethoxylated sorbitan laurate", "values": [{"measurement": "germination rate", "setting": "[1]; D1", "value": 25, "unit": "%"}, {"measurement": "germination rate", "setting": "[1]; D2", "value": 78, "unit": "%"}]}, {"compound": "Sorbitan laurate", "values": [{"measurement": "germination rate", "setting": "[1]; D1", "value": 31, "unit": "%"}, {"measurement": "germination rate", "setting": "[1]; D2", "value": 78, "unit": "%"}]}, {"compound": "Fc1ccc([C@]2(Cn3cncn3)O[C@H]2c2ccccc2Cl)cc1", "note": "(racemic) [Epoxiconazole, reference compound]", "values": [{"measurement": "Inhibitory diameter", "setting": "[2]; D1", "value": 0, "unit": "mm"}, {"measurement": "Inhibitory diameter", "setting": "[2]; D2", "value": 32, "unit": "mm"}, {"measurement": "Inhibitory diameter", "setting": "[2]; D3", "value": 30, "unit": "mm"}, {"measurement": "Inhibitory diameter", "setting": "[2]; D4", "value": 30, "unit": "mm"}, {"measurement": "Inhibitory diameter", "setting": "[2]; D5", "value": 29, "unit": "mm"}]}, {"compound": "Methylglucose dioleate", "values": [{"measurement": "germination rate", "setting": "[1]; D1", "value": 18, "unit": "%"}, {"measurement": "germination rate", "setting": "[1]; D2", "value": 65, "unit": "%"}]}, {"compound": "Sucrose palmitate", "values": [{"measurement": "germination rate", "setting": "[1]; D1", "value": 28, "unit": "%"}, {"measurement": "germination rate", "setting": "[1]; D2", "value": 78, "unit": "%"}]}, {"compound": "Glucose stearate", "values": [{"measurement": "germination rate", "setting": "[1]; D1", "value": 34, "unit": "%"}, {"measurement": "germination rate", "setting": "[1]; D2", "value": 78, "unit": "%"}]}, {"compound": "CCCCCCCCCCCC(=O)N(C)C[C@H](O)[C@@H](O)[C@H](O)[C@H](O)CO", "note": "[N-lauroyl-N-methyl glucamide]", "values": [{"measurement": "germination rate", "setting": "[1]; D1", "value": 28, "unit": "%"}, {"measurement": "germination rate", "setting": "[1]; D2", "value": 65, "unit": "%"}]}]}
